The text below walks through data of patent publication US12479841B2, “Anthelmintic compounds comprising azaindoles structure” (Intervet Inc., priority 2019, dated 2025).

In assay [1] the target is Caenorhabditis elegans slo-1a (Caenorhabditis elegans, UniProt Q95V25).
Method: In Vitro Assay: Agonistic Activity at C. elegans Slo-1a
A CHO K1 cell line stably transfected with the Caenorhabditis elegans slo-1a (accession no Y51A2D.19a) was established. Cells were seeded in microtiter plates (black 384-well MTP, clear bottom) in a concentration of 10,000 cells/well in 25 μl medium and cultured for 20 to 24 hours at 37° C. and 5% CO2. The cell medium was removed, and the cells washed with Tyrode's solution. 25 μl of FMP-dye Blue-Tyrode's was added to each well and incubated at room temperature for 30 min.
(§1) For the membrane potential measurements, the prepared cell plate and substance plate were placed in the FLIPR Tetra (Molecular Devices). The baseline measurement of the fluorescence was stared for 20 sec (Exc. 510-545 nm, Emm. 565-625 nm). The cells were depolarized by addition of 25 μl of the diluted test compounds (final assay concentration of the KCl-Tyrode: 70 mM KCl, 2 mM CaCl2, 1 mM MgCl2, 0.8 mM NaH2PO4, 5 mM Glucose, 28 mM Hepes, pH 7.4, including the voltage sensitive dye). The complete measurement takes 150 s.
(§2) EC50 values were determined in triplicate utilizing compound dilution series. The data were determined at least in two independent tests. The data were proceeded by using the ActivityBase XE Runner software (IDBS) for curve fitting and calculation of the half-maximal effective concentration.
Assay [2] has as its system larvae L4 of D. immitis. Kind of assay: In vitro assay: Dirofilaria immitis L4 motility. The class given is cell-based. As to conditions: 72 h, read-out: EC50 value, Dirofilaria immitis L4, 10 L4 larvae, 3 days incubation, reduction in motility vs DMSO, duplicates.
For assay [3], the target named is human Maxi K channel (BK channel), KCNMA1 (KCa1.1) and beta1 (KCNMB1) subunits (Homo sapiens, UniProt Q12791).
Method: In Vitro Assay: Agonistic Activity at the Human Maxi K Channel (BK Channel)
A CHO K1 cell line was stably transfected with the KCNMA1 (KCa1.1, U11058) and beta1 (KCNMB1) subunits of the human Maxi K channel (Ponte et al, Molecular Pharmacology 2012, 81(4), 567-577).
Cells were seeded in microtiter plates (black 384-well MTP, clear bottom) in a concentration of 10,000 cells/well in 25 μl medium and cultured for 20 to 24 hours at 37° C. and 5% CO2. The cell medium was removed, and the cells washed with Tyrode's solution. 25 μl of FMP-dye Blue-Tyrode's was added to each well and incubated at room temperature for 30 min.
as §1, §2
The subject of assay [4] is Oesophagostomum dentatum (nodular worm of swine), larval stage 4. Put plainly: In vitro assay: Oesophagostomum dentatum L4 larvae, minimum effective concentration. Particulars: in Sus scrofa, read-out: MEC (minimum effective concentration) against Oesophagostomum dentatum L4, L4 larvae, 20 per well, microscopic examination, concentration at which at least one larva shows mortality, change in motility or development.
From the text: (§3) In Vitro Assay: Ascaridia galli and Oesophagostomum dentatum
(§4) Ascaridia galli (intestinal roundworm of chicken), larval stage 3 (“L3”); and Oesophagostomum dentatum (nodular worm of swine), larval stages 3 and 4 (respectively “L3” and “L4”) where suspended in a nutrient medium and distributed to 96 well plates with 20 larvae per well. The wells were spiked with DMSO solutions of the compounds with declining concentration.

Assay [5] has as its system A. viteae microfilaria. Kind of assay: In vitro assay: Acanthocheilonema viteae L1 (microfilaria) motility. As to conditions: 72 h, read-out: EC50 value, Acanthocheilonema viteae L1, approximately 500 microfilaria, 3 days incubation, reduction in motility vs DMSO, duplicates.
Method: In Vitro Assay: Acanthocheilonema viteae L1
Approximately 500 A. viteae microfilaria were added to a microtiter plate containing a nutrient medium and the test compound in DMSO at varying concentrations. After incubation for 3 days, activity was evaluated as reduction in motility as compared to DMSO as negative control. Compounds were tested in duplicates. Based on the concentration response curves EC50 values were calculated.
Assay [6] concerns Oesophagostomum dentatum (nodular worm of swine), larval stage 3. Put plainly: In vitro assay: Oesophagostomum dentatum L3 larvae, minimum effective concentration. As to conditions: in Sus scrofa, read-out: MEC (minimum effective concentration) against Oesophagostomum dentatum L3, L3 larvae, 20 per well, microscopic examination, concentration at which at least one larva shows mortality, change in motility or development.
From the text: as §3, §4

The test system of assay [7] is D. immitis microfilaria. Kind of assay: In vitro assay: Dirofilaria immitis L1 (microfilaria) motility. It counts as cell-based. As to conditions: 72 h, read-out: EC50 value, Dirofilaria immitis L1, approximately 500 microfilaria, 3 days incubation, reduction in motility vs DMSO, duplicates.

Structures are written as SMILES.

Sequence of Caenorhabditis elegans slo-1a (Q95V25 whole entry): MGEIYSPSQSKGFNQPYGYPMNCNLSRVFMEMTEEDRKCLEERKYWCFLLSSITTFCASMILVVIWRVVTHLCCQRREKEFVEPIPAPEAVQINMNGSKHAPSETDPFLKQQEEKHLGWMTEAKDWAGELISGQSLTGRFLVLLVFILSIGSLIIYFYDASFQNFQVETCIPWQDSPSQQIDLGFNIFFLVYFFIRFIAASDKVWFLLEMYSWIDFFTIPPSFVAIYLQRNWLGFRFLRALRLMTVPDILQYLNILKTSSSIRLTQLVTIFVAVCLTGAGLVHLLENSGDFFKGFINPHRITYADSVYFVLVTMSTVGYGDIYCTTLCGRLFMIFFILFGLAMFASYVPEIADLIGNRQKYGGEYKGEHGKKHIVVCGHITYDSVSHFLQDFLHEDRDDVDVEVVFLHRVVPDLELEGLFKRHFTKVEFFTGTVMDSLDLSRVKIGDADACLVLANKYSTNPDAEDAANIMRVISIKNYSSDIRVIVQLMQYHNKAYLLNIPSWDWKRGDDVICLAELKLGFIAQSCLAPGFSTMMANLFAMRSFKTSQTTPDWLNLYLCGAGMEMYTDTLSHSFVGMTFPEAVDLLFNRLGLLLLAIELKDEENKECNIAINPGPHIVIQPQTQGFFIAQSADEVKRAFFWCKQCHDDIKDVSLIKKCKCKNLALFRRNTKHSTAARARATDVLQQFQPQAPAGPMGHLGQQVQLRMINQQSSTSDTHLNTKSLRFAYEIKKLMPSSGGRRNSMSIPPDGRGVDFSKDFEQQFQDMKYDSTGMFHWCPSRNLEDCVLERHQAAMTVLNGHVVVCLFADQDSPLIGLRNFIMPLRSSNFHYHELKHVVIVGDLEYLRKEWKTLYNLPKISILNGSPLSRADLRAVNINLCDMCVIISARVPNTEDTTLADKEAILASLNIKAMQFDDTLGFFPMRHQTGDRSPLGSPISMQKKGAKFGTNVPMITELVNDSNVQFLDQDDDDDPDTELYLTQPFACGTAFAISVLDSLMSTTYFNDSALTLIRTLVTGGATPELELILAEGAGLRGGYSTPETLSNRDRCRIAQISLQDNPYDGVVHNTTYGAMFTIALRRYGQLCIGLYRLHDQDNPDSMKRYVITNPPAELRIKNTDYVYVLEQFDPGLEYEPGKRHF
Sequence of human Maxi K channel (BK channel), KCNMA1 (KCa1.1) and beta1 (KCNMB1) subunits (Q12791 1-1178 isoform Q12791-5): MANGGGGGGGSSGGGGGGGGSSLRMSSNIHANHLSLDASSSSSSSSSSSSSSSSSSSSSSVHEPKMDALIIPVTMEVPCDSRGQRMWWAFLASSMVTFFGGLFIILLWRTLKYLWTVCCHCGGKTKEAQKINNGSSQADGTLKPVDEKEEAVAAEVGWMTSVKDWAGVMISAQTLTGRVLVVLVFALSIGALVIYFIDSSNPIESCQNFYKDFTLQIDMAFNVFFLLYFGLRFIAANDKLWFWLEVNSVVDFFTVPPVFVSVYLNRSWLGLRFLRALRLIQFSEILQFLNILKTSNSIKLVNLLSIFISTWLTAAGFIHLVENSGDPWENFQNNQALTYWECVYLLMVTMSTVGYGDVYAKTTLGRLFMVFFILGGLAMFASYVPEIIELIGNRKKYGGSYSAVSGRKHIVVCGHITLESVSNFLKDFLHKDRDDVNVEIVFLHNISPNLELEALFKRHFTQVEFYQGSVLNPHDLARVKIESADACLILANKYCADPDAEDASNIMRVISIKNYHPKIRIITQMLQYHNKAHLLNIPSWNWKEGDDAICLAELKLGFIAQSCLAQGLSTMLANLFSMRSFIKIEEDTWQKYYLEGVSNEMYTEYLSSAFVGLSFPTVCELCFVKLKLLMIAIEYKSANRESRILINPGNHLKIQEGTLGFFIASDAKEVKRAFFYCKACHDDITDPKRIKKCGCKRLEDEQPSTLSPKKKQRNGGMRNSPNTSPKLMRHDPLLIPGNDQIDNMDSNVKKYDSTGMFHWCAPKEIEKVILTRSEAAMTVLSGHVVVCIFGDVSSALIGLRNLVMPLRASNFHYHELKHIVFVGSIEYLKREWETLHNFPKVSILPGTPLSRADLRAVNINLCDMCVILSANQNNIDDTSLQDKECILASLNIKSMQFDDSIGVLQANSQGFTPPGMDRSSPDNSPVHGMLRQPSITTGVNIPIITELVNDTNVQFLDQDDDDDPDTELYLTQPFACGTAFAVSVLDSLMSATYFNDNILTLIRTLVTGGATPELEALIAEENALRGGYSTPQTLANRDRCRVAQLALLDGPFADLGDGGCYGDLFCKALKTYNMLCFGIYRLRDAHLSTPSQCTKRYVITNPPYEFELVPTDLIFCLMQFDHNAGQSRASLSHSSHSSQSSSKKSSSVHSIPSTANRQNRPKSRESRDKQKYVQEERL
Sequence of human Maxi K channel (BK channel), KCNMA1 (KCa1.1) and beta1 (KCNMB1) subunits (Q16558 whole entry partner): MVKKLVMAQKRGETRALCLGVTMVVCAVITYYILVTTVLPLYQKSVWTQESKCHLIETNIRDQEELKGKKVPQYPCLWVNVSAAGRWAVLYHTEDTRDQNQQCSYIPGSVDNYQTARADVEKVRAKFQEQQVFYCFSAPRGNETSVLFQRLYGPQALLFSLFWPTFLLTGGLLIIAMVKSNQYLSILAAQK

For the compound `O=C(NC1CCOc2ccccc21)c1cnc2c(ccn2-c2cccc(Cl)c2Cl)c1N1CCOCC1` (centres unmarked) [Compound 8], the EC50 in assay [1] is less than 1 µM; in assay [2], less than 1 µM; in assay [3], greater than 30 µM.
For `O=C(N[C@H]1CCc2ccccc21)c1cnc2c(ccn2-c2cc(Cl)cc(Cl)c2)c1N1CCOCC1` [Compound 37], the minimal effective concentration in assay [4] and in assay [6] was no more than 50 µM throughout. Moreover, the EC50 in assay [5] was less than 10 µM; in assay [7] it was less than 10 µM; in assay [3] it was greater than 30 µM.

A word on the EC50: it is the concentration needed to bring the measured effect to its halfway point.
